IC50 data for 22 compounds are collected here from patent US9884063B2, “Amido-substituted azole compounds” (Bayer Pharma Aktiengesellschaft, priority 2014, dated 2018).

A value given as a limit tells only on which side of the number the result lay.

Assay [1] has as its system HEK293 FOP control reporter cell line. In words: HEK293 FOP Assay (FOP control vector luciferase reporter). Format: cell-based. To be noted: Homo sapiens. The method, boiled down: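 Stable HEK293 line carrying the FOP vector (randomized, non-functional TCF sites; Geneticin-selected) was run in parallel with the TOP line. Cells were plated 24 h ahead at 10000/well and given recombinant human Wnt-3a at 2500–5 ng/ml. Compounds were tested at 50 μM–15 nM (3.16-fold steps) in CAFTY buffer, pH 7.4, with 2 mM Ca2+ and 0.01% BSA.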
A general note: A reporter such as luciferase makes a cellular process visible.

In assay [2] the target is T1, TNKS1 (Homo sapiens, UniProt O95271).
T1 sequence (O95271 1-1327): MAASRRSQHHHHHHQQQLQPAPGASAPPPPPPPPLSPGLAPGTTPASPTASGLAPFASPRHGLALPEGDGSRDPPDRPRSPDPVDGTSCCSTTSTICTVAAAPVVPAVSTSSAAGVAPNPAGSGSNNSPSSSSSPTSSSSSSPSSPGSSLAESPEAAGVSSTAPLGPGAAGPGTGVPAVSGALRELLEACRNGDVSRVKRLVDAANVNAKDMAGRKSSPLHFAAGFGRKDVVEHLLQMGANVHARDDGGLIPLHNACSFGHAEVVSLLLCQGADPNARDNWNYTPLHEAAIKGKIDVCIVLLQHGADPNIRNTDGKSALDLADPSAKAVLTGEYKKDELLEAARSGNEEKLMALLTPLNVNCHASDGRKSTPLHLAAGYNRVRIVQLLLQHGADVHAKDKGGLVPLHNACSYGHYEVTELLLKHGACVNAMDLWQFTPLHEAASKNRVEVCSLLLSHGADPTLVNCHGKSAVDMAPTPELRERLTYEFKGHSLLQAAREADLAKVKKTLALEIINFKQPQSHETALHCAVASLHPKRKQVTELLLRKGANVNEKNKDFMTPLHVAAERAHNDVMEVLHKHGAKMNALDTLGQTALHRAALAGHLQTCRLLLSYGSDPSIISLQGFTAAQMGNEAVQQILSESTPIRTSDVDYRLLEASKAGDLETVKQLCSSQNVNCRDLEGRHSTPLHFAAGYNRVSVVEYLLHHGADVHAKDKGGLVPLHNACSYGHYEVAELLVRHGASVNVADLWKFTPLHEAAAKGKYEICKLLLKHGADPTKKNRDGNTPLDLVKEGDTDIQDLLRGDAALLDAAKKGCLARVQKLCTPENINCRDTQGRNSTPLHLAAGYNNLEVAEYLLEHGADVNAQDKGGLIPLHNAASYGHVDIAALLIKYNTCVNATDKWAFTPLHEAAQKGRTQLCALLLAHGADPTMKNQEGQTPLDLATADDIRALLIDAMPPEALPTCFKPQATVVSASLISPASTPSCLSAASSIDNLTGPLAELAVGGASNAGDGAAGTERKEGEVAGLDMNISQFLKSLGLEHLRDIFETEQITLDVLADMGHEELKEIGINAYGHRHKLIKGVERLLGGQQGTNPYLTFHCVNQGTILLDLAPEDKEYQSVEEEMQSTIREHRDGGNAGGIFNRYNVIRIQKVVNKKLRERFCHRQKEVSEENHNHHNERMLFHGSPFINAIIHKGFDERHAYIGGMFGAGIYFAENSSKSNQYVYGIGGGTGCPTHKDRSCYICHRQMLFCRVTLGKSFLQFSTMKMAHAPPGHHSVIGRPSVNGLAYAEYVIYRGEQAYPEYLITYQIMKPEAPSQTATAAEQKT
In words: Modified TNKS1 Assay 2 (auto-parsylation, [3H]-NAD+ SPA). Format: biochemical. Particulars: 6 nM TNKS1, 96 well.

The mark [3] stands for this setting: HEK293 FOP control reporter cell line, 16 hours incubation, compound dilution series 50 μM to 15 nM.
[4] abbreviates: HEK293 FOP control reporter cells, 16 hours, luciferase, dilution series from 50 μM.

One may read the IC50 as the concentration that gives 50% inhibition. High values mean weaker potency, low ones greater potency. As to `CNC(=O)c1nc[nH]c1C(=O)Nc1ccc(NC(=O)c2ccccc2)cc1` [Example 21, N^5-[4-(benzoylamino)phenyl]-N^4-methyl-1H-imidazole-4,5-dicarboxamide], the IC50 was 35 µM in assay [1] (setting [3]), 35 µM in assay [1] (setting [4]) and over 10 µM in assay [2].

As for `CN(C)CCNC(=O)c1nc[nH]c1C(=O)Nc1ccc(NC(=O)c2ccc(F)cc2Cl)cc1` [Example 22, N^4-{4-[(2-chloro-4-fluorobenzoyl)amino]phenyl}-N^5-[2-(dimethylamino)ethyl]-1H-imidazole-4,5-dicarboxamide], the values for the IC50 in assay [1] (setting [4]) and in assay [2] were at least 50 µM and 0.01 µM, respectively.

As to `O=C(Nc1ccc(NC(=O)c2[nH]cnc2C(=O)N2CCOCC2)cc1)c1ccc(F)cc1Cl` [Example 29, N-{4-[(2-chloro-4-fluorobenzoyl)amino]phenyl}-5-(morpholin-4-ylcarbonyl)-1H-imidazole-4-carboxamide], the values for the IC50 in assay [1] (setting [4]) and in assay [2] were at least 50 µM and 2.1 µM, respectively.

For the compound `O=C(Nc1ccc(NC(=O)c2[nH]cnc2C(=O)NCCN2CCCCC2)cc1)c1ccc(F)cc1Cl` [Example 32, N^4-{4-[(2-chloro-4-fluorobenzoyl)amino]phenyl}-N^5-[2-(piperidin-1-yl)ethyl]-1H-imidazole-4,5-dicarboxamide], the IC50 came to 30 µM in assay [1] (setting [3]), 42 µM in assay [1] (setting [4]) and 0.009 µM in assay [2].

Consider `CNC(=O)c1nc[nH]c1C(=O)Nc1ccc(NC(=O)c2c(Cl)cccc2C(F)(F)F)cc1` [Example 36, N^5-(4-{[2-chloro-6-(trifluoromethyl)benzoyl]amino}phenyl)-N^4-methyl-1H-imidazole-4,5-dicarboxamide], for which the IC50 in assay [1] (setting [4]) was at least 50 µM; in assay [2] it was over 10 µM.

Turning to `CCc1ccccc1C(=O)Nc1ccc(NC(=O)c2[nH]cnc2C(=O)NC)cc1` [Example 39, N^5-{4-[(2-ethylbenzoyl)amino]phenyl}-N^4-methyl-1H-imidazole-4,5-dicarboxamide], the figures for the IC50 in assay [1] (setting [3]), in assay [1] (setting [4]) and in assay [2] were 5.5 µM, 5.5 µM and 2.7 µM, respectively.

As to `CN1CC2(C1)CN(C(=O)c1nc[nH]c1C(=O)Nc1ccc(NC(=O)c3ccc(F)cc3Cl)cc1)C2` [Example 46, N-{4-[(2-chloro-4-fluorobenzoyl)amino]phenyl}-4-[(6-methyl-2,6-diazaspiro[3.3]hept-2-yl)carbonyl]-1H-imidazole-5-carboxamide], the values for the IC50 in assay [1] (setting [3]) and in assay [2] were 12 µM and 0.68 µM, respectively.

On to `O=C(Nc1ccc(NC(=O)c2[nH]cnc2C(=O)NCCC2CCCC2)cc1)c1cc(F)c(F)cc1Cl` [Example 48, N^5-{4-[(2-chloro-4,5-difluorobenzoyl)amino]phenyl}-N^4-(2-cyclopentylethyl)-1H-imidazole-4,5-dicarboxamide], for which the IC50 in assay [1] (setting [3]) is 17 µM; in assay [2], over 10 µM.

For the compound `CNC(=O)c1nc[nH]c1C(=O)Nc1ccc(NC(=O)c2ccc(F)cc2Br)cc1` [Example 56, N^5-{4-[(2-bromo-4-fluorobenzoyl)amino]phenyl}-N^4-methyl-1H-imidazole-4,5-dicarboxamide], the IC50 amounted to 10 µM in assay [1] (setting [3]) and 0.53 µM in assay [2].

Turning to `CNC(=O)c1nc[nH]c1C(=O)Nc1ccc(NC(=O)c2ccccc2OC)cc1` [Example 60, N^5-{4-[(2-methoxybenzoyl)amino]phenyl}-N^4-methyl-1H-imidazole-4,5-dicarboxamide], the IC50 was 9.75 µM in assay [1] (setting [3]) and over 10 µM in assay [2].

Take `O=C(Nc1ccc(NC(=O)c2[nH]cnc2C(=O)NCCN2CCCCC2)cc1)c1ccc(F)cc1I` [Example 62, N^5-{4-[(4-fluoro-2-iodobenzoyl)amino]phenyl}-N^4-[2-(piperidin-1-yl)ethyl]-1H-imidazole-4,5-dicarboxamide]: the figures for the IC50 in assay [1] (setting [3]) and in assay [2] were 24 µM and 0.84 µM, respectively.

Turning to `Cc1nc(C(=O)Nc2ccc(NC(=O)c3ccc(F)cc3Cl)cc2)c(C(=O)NCCN(C)C)[nH]1` [Example 66, N^4-{4-[(2-chloro-4-fluorobenzoyl)amino]phenyl}-N^5-[2-(dimethylamino)ethyl]-2-methyl-1H-imidazole-4,5-dicarboxamide], the IC50 in assay [1] (setting [3]) is 6.2 µM; in assay [2], 0.02 µM.

On to `Cc1nc(C(=O)Nc2ccc(NC(=O)c3ccc(F)cc3Cl)cc2)c(C(=O)NCCN2CCCCC2)[nH]1` [Example 67, N^4-{4-[(2-chloro-4-fluorobenzoyl)amino]phenyl}-2-methyl-N^5-[2-(piperidin-1-yl)ethyl]-1H-imidazole-4,5-dicarboxamide], for which the IC50 was found to be 13 µM in assay [1] (setting [3]) and 0.004 µM in assay [2].

In the case of `CN(C)CCNC(=O)c1nc[nH]c1C(=O)Nc1ccc(NC(=O)c2ccc(F)cc2Cl)c(F)c1` [Example 73, N^5-{4-[(2-chloro-4-fluorobenzoyl)amino]-3-fluorophenyl}-N^4-[2-(dimethylamino)ethyl]-1H-imidazole-4,5-dicarboxamide], the IC50 was 33 µM in assay [1] (setting [3]) and 0.01 µM in assay [2].

Regarding `CCNC(=O)c1nc[nH]c1C(=O)Nc1ccc(NC(=O)c2cnccc2Cl)cc1` [Example 263, N^5-(4-{[(4-chloropyridin-3-yl)carbonyl]amino}phenyl)-N^4-ethyl-1H-imidazole-4,5-dicarboxamide], the IC50 in assay [1] (setting [3]) was found to be 27.5 µM; in assay [2] it was 0.3 µM.

Take `CCNC(=O)c1nc[nH]c1C(=O)Nc1ccc(NC(=O)c2cc(OC)ccc2Cl)cc1` [Example 264, N^5-{4-[(2-chloro-5-methoxybenzoyl)amino]phenyl}-N^4-ethyl-1H-imidazole-4,5-dicarboxamide]: the IC50 in assay [1] (setting [3]) was determined as 16 µM; in assay [2], 0.09 µM.

In the case of `C[C@@H]1CCCCN1CCNC(=O)c1[nH]cnc1C(=O)Nc1ccc(NC(=O)c2ccc(F)cc2Cl)cc1` [Example 267, N^4-{4-[(2-chloro-4-fluorobenzoyl)amino]phenyl}-N^5-{2-[(2R)-2-methylpiperidin-1-yl]ethyl}-1H-imidazole-4,5-dicarboxamide], the IC50 was 20 µM in assay [1] (setting [3]) and 0.007 µM in assay [2].

As to `C[C@@H]1CCCN(CCNC(=O)c2[nH]cnc2C(=O)Nc2ccc(NC(=O)c3ccc(F)cc3Cl)cc2)C1` [Example 278, N^4-{4-[(2-chloro-4-fluorobenzoyl)amino]phenyl}-N^5-{2-[(3R)-3-methylpiperidin-1-yl]ethyl}-1H-imidazole-4,5-dicarboxamide], the IC50 in assay [1] (setting [3]) is 25 µM; in assay [2], 0.005 µM.

Consider `O=C(Nc1ccc(NC(=O)c2nc[nH]c2C(=O)NCCN2CCC(F)(F)C2)cc1)c1ccc(F)cc1Cl` [Example 279, N^4-{4-[(2-chloro-4-fluorobenzoyl)amino]phenyl}-N^5-[2-(3,3-difluoropyrrolidin-1-yl)ethyl]-1H-imidazole-4,5-dicarboxamide], for which the values for the IC50 in assay [1] (setting [3]) and in assay [2] were 12 µM and 0.02 µM, respectively.

In the case of `CN1CCCC(CNC(=O)c2[nH]cnc2C(=O)Nc2ccc(NC(=O)c3ccc(F)cc3Cl)cc2)C1` (centres unmarked) [Example 298, N^4-{4-[(2-chloro-4-fluorobenzoyl)amino]phenyl}-N^5-[(1-methylpiperidin-3-yl)methyl]-1H-imidazole-4,5-dicarboxamide], the IC50 is 17 µM in assay [1] (setting [3]) and 0.04 µM in assay [2].

For the compound `O=C(Nc1ccc(NC(=O)c2ocnc2C(=O)NCCN2CCCCC2)cc1)c1ccc(F)cc1Cl` [Example 303, N^5-{4-[(2-chloro-4-fluorobenzoyl)amino]phenyl}-N^4-[2-(piperidin-1-yl)ethyl]-1,3-oxazole-4,5-dicarboxamide], the IC50 in assay [1] (setting [3]) came to 8.1 µM; in assay [2] it was 0.008 µM.

In the case of `CNC(=O)c1nc[nH]c1C(=O)Nc1ccc(NC(=O)c2cc(Cl)ccc2Cl)cc1` [Example 309, N^5-{4-[(2,5-dichlorobenzoyl)amino]phenyl}-N^4-methyl-1H-imidazole-4,5-dicarboxamide], the results for the IC50 in assay [1] (setting [3]) and in assay [2] were 38 µM and 0.41 µM, respectively.
